Tests used:
Rattus norvegicus = experiment: Total drug recovery in female Sprague-Dawley rat treated with [14C]-AMG 221 at 2 mg/kg, po measured over 48 hrs by liquid scintillation counting analysis; type: ADME, organism-based; parameters: dose 2 mg/kg, route oral; conditions: in vivo
[1] = Retention time of the compound in Sprague-Dawley rat urine treated with [14C]-AMG 221 at 2 mg/kg, po measured over 24 hrs by LC-MS/HPLC radiometric analysis; type: ADME, organism-based; parameters: dose 2 mg/kg, route oral; conditions: in vivo
[2] = Drug excretion in male Sprague-Dawley rat urine treated with [14C]-AMG 221 at 2 mg/kg, po measured over 24 hrs by LC-MS/HPLC radiometric analysis; type: ADME, organism-based; parameters: dose 2 mg/kg, route oral; conditions: in vivo
[3] = Drug excretion in male Sprague-Dawley rat feces treated with [14C]-AMG 221 at 2 mg/kg, po measured over 24 hrs by LC-MS/HPLC radiometric analysis; type: ADME, organism-based; parameters: dose 2 mg/kg, route oral; conditions: in vivo
[4] = Drug excretion in female Sprague-Dawley rat urine treated with [14C]-AMG 221 at 2 mg/kg, po measured over 24 hrs by LC-MS/HPLC radiometric analysis; type: ADME, organism-based; parameters: dose 2 mg/kg, route oral; conditions: in vivo
[5] = Drug excretion in female Sprague-Dawley rat feces treated with [14C]-AMG 221 at 2 mg/kg, po measured over 24 hrs by LC-MS/HPLC radiometric analysis; type: ADME, organism-based; parameters: dose 2 mg/kg, route oral; conditions: in vivo
[6] = Retention time of the compound in Sprague-Dawley rat urine treated with [14C]-AMG 221 at 2 mg/kg, po after 12 hrs by LC-MS/HPLC radiometric analysis; type: ADME, organism-based; parameters: dose 2 mg/kg, route oral; conditions: in vivo
Liver microsome [7] = experiment: Retention time of the compound in rat liver microsomes treated with (S)-2-((1S,2S,4R)-bicyclo[2.2.1]heptan-2-ylamino)-5-((S)-1-hydroxypropan-2-yl)-5-methylthiazol-4(5H)-one at 20 uM preincubated for 5 mins followed by NADPH addition measured after 60 mins by LC-MS/MS analysis; type: ADME; conditions: 1 h
Liver microsome [8] = experiment: Retention time of the compound in rat liver microsomes treated with [14C]-(S)-2-((1R,2S,4R,5S)-5-hydroxybicyclo[2.2.1]heptan-2-ylamino)-5-isopropyl-5-methylthiazol-4(5H)-one at 40 uM preincubated for 5 mins followed by NADPH addition measured after 60 mins by LC-MS/MS-radiometric analysis; type: ADME; conditions: 1 h
Plasma [9] = experiment: Retention time of the compound in Sprague-Dawley rat plasma treated with [14C]-AMG 221 at 2 mg/kg, po measured at 0.5 hrs by LC-MS/HPLC radiometric analysis; type: ADME, organism-based; parameters: dose 2 mg/kg, route oral; conditions: in vivo
[10] = Retention time of the compound in bile duct cannulated Sprague-Dawley rat bile treated with [14C]-(S)-2-((1R,2S,4R,5S)-5-hydroxybicyclo[2.2.1]heptan-2-ylamino)-5-isopropyl-5-methylthiazol-4(5H)-one at 5 mg/kg, po measured over 48 hrs by LC-MS/HPLC radiometric analysis; type: ADME, organism-based; parameters: dose 5 mg/kg, route oral; conditions: in vivo
[11] = Retention time of the compound in Beagle dog urine treated with [14C]-AMG 221 at 2 mg/kg, po measured over 24 hrs by LC-MS/HPLC radiometric analysis; type: ADME, organism-based, Canis lupus familiaris; parameters: dose 2 mg/kg, route oral; conditions: in vivo
[12] = Plasma protein binding in human; type: ADME, cell-free; conditions: read-out: PPB (converted)
[13] = Plasma protein binding in rat; type: ADME, cell-free; conditions: read-out: PPB (converted)
[14] = Oral bioavailability in rat; type: ADME, organism-based; conditions: in vivo
[15] = Volume of distribution at steady state in rat; type: ADME, organism-based; conditions: in vivo, read-out: Vdss
[16] = Clearance in iv dosed rat; type: ADME, organism-based; conditions: in vivo
Liver microsome [17] = experiment: Drug level in rat liver microsomes treated with (S)-2-((1S,2S,4R,6R)-6-hydroxybicyclo[2.2.1]heptan-2-ylamino)-5-isopropyl-5-methylthiazol-4(5H)-one at 20 uM preincubated for 5 mins followed by NADPH addition measured after 60 mins by LC-MS/MS analysis; type: ADME; conditions: 1 h
Liver microsome [18] = experiment: Retention time of the compound in rat liver microsomes treated with ((S)-2-((1S,2S,4R)-bicyclo[2.2.1]heptan-2-ylamino)-5-(2-hydroxypropan-2-yl)-5-methylthiazol-4(5H)-one at 20 uM preincubated for 5 mins followed by NADPH addition measured after 60 mins by LC-MS/MS analysis; type: ADME; conditions: 1 h
Plasma [19] = experiment: Retention time of the compound in Beagle dog plasma treated with [14C]-AMG 221 at 2 mg/kg, po measured at 0.5 hrs by LC-MS/HPLC radiometric analysis; type: ADME, organism-based, Canis lupus familiaris; parameters: dose 2 mg/kg, route oral; conditions: in vivo
Liver microsome [20] = experiment: Retention time of the compound in rat liver microsomes treated with (S)-2-((1S,2S,4R)-bicyclo[2.2.1]heptan-2-ylamino)-5-(2-hydroxypropan-2-yl)-5-methylthiazol-4(5H)-one at 20 uM preincubated for 5 mins followed by NADPH addition measured after 60 mins by LC-MS/MS analysis; type: ADME; conditions: 1 h
[21] = Drug level in Sprague-Dawley rat urine treated with [14C]-(S)-2-((1R,2S,4R,5S)-5-hydroxybicyclo[2.2.1]heptan-2-ylamino)-5-isopropyl-5-methylthiazol-4(5H)-one at 5 mg/kg, po measured over 24 hrs by LC-MS/HPLC radiometric analysis; type: ADME, organism-based; parameters: dose 5 mg/kg, route oral; conditions: in vivo
[22] = Retention time of the compound in urine of bile duct cannulated Sprague-Dawley rat treated with [14C]-(S)-2-((1R,2S,4R,5S)-5-hydroxybicyclo[2.2.1]heptan-2-ylamino)-5-isopropyl-5-methylthiazol-4(5H)-one at 5 mg/kg, po measured over 48 hrs by LC-MS/HPLC radiometric analysis; type: ADME, organism-based; parameters: dose 5 mg/kg, route oral; conditions: in vivo

| SMILES | Drug recovery (Rattus norvegicus) | Retention_time [1] | Drug excretion [2] | Drug excretion [3] | Drug excretion [4] | Drug excretion [5] | other results |
| --- | --- | --- | --- | --- | --- | --- | --- |
| C[C@H](CO)[C@]1(C)SC(N[C@H]2C[C@H]3C[C@@H]2C[C@H]3O)=NC1=O | 0.2% | 8.5 min | 8.3% | 8.3% | 24% | 24% |  |
| CC(C)[C@]1(C)SC(N[C@H]2C[C@H]3C[C@@H]2[C@H](O)C3)=NC1=O | 3.2% |  | 29% | 29% | 37% | 37% | Retention_time [6]: 33 min |
| C[C@@H](CO)[C@]1(C)SC(N[C@H]2C[C@H]3C[C@@H]2C[C@@H]3O)=NC1=O | 2.9% |  | 8.3% | 8.3% | 24% | 24% | Retention_time (Liver microsome [7]): 11.5 min; Retention_time (Liver microsome [8]): 11.5 min |
| CC(C)(O)[C@]1(C)SC(N[C@H]2C[C@@H]3CC[C@H]2C3)=NC1=O | 0.9% |  | 29% | 29% | 37% | 37% | Retention_time (Plasma [9]): 38.5 min |
| CC(C)[C@]1(C)SC(N[C@H]2C[C@H]3C[C@@H]2C[C@H]3O[C@@H]2O[C@H](C(=O)O)[C@@H](O)[C@H](O)[C@H]2O)=NC1=O | 0.2% |  |  |  |  |  | Retention_time [10]: 25.2 min |
| CC(C)[C@]1(C)SC(N[C@H]2C[C@H]3C[C@@H]2[C@H](O)[C@@H]3O)=NC1=O | 0.1% | 19.2 min | 8.3% | 8.3% | 24% | 24% |  |
| C[C@@H](CO)[C@]1(C)SC(N[C@H]2C[C@@H]3CC[C@H]2C3)=NC1=O | 0.8% |  | 29% | 29% | 37% | 37% | Retention_time [6]: 37.5 min |
| C[C@@H](CO)[C@]1(C)SC(N[C@H]2C[C@H]3C[C@@H]2CC3=O)=NC1=O | 2.1% | 14.1 min |  |  |  |  |  |
| C=C(C)[C@]1(C)SC(N[C@H]2C[C@H]3C[C@@H]2[C@H](O)C3)=NC1=O | 0.1% |  |  |  |  |  | Retention_time [11]: 29.9 min |
| CC(C)[C@]1(C)SC(N[C@H]2C[C@@H]3CC[C@H]2C3)=NC1=O |  |  |  |  |  |  | fraction unbound [12]: 0.15; fraction unbound [13]: 0.15; bioavailability [14]: 30%; Vd [15]: 1 L/kg; clearance [16]: 50 mL/min/kg |
| CC(C)(O)[C@]1(C)SC(N[C@H]2C[C@H]3C[C@@H]2[C@H](O)C3)=NC1=O | 2.4% |  | 8.3% | 8.3% | 24% | 24% | Drug metabolism (Liver microsome [17]): metabolite_detected; Retention_time (Liver microsome [18]): 16.8 min |
| C[C@@H](C(=O)O)[C@]1(C)SC(N[C@H]2C[C@@H]3CC[C@H]2C3)=NC1=O | 0.5% |  |  |  |  |  | Retention_time [11]: 35.7 min |
| CC(C)[C@]1(C)SC(N[C@H]2C[C@H]3C[C@@H]2C[C@@H]3O)=NC1=O | 24.2% |  | 17% | 17% | 24% | 24% | Retention_time [6]: 30.3 min |
| C=C(C)[C@]1(C)SC(N[C@H]2C[C@@H]3CC[C@H]2C3)=NC1=O |  |  |  |  |  |  | Retention_time (Plasma [19]): 40.7 min |
| CC(O)(CO)[C@]1(C)SC(N[C@H]2C[C@@H]3CC[C@H]2C3)=NC1=O (stereo partly drawn) | 0.1% |  | 8.3% | 8.3% | 24% | 24% | Retention_time [11]: 31.5 min |
| C[C@H](CO)[C@]1(C)SC(N[C@H]2C[C@H]3C[C@@H]2CC3=O)=NC1=O | 0.1% | 9.2 min |  |  |  |  |  |
| C[C@H](C(=O)O)[C@]1(C)SC(N[C@H]2C[C@@H]3CC[C@H]2C3)=NC1=O |  | 25.8 min |  |  |  |  |  |
| CC(C)[C@]1(C)SC(N[C@H]2C[C@H]3C[C@@H]2C[C@H]3O)=NC1=O | 4.7% |  | 29% | 29% | 37% | 37% | Retention_time [6]: 30.9 min |
| CC(C)(O)[C@]1(C)SC(N[C@H]2C[C@H]3C[C@@H]2C[C@@H]3O)=NC1=O |  |  | 8.3% | 8.3% | 24% | 24% | Retention_time (Liver microsome [8]): 11.5 min; Retention_time (Liver microsome [20]): 11.5 min |
| C[C@H](CO)[C@]1(C)SC(N[C@H]2C[C@@H]3CC[C@H]2C3)=NC1=O | 2.6% |  | 29% | 29% | 37% | 37% | Retention_time [6]: 34.6 min |
| CC(C)[C@]1(C)SC(N[C@H]2C[C@H]3C[C@@H]2CC3=O)=NC1=O | 9.1% |  |  |  |  |  | Retention_time [6]: 33.3 min; Drug metabolism [21]: metabolite_detected |
| C=C(C)[C@]1(C)SC(N[C@H]2C[C@H]3C[C@@H]2C[C@@H]3O)=NC1=O | 0.8% | 27.9 min |  |  |  |  |  |
| CC(C)(O)[C@]1(C)SC(N[C@H]2C[C@H]3C[C@@H]2CC3=O)=NC1=O |  | 20.7 min |  |  |  |  |  |
| C[C@H](CO)[C@]1(C)SC(N[C@H]2C[C@H]3C[C@@H]2C[C@@H]3O)=NC1=O | 1.2% | 7.2 min | 8.3% | 8.3% | 24% | 24% | Drug metabolism [21]: metabolite_detected |
| C[C@H](CO)[C@]1(C)SC(N[C@H]2C[C@H]3C[C@@H]2[C@H](O)C3)=NC1=O | 0.1% | 9.9 min | 8.3% | 8.3% | 24% | 24% |  |
| CC(CO[C@@H]1O[C@H](C(=O)O)[C@@H](O)[C@H](O)[C@H]1O)[C@]1(C)SC(N[C@H]2C[C@@H]3CC[C@H]2C3)=NC1=O (stereo partly drawn) | 0.1% |  |  |  |  |  | Retention_time [11]: 27.8 min |
| C[C@@H](CO)[C@]1(C)SC(N[C@H]2C[C@H]3C[C@@H]2C[C@H]3O)=NC1=O | 0.1% |  | 8.3% | 8.3% | 24% | 24% | Retention_time [22]: 12.8 min |
| CC(C)(O)[C@]1(C)SC(N[C@H]2C[C@H]3C[C@@H]2C[C@H]3O)=NC1=O |  |  | 8.3% | 8.3% | 24% | 24% | Retention_time [22]: 12.8 min |

Source: ChEMBL document CHEMBL3525943, “Regiospecific and stereospecific triangulation of the structures of metabolites formed by sequential metabolism at multiple prochiral centers” (Drug Metab Dispos, 2012)
